The record followed here is patent US20240398814A1, “KRAS INHIBITOR AND HDAC INHIBITOR COMBINATION FOR THE TREATMENT OF CANCER” (Northwestern University, priority 2023, published 2024).

One assay has as its system NF-kB/p65 protein. The assay is described as follows: Western blot of p65 nuclear localisation and K310 acetylation in KL LJE1 cells. In kind it is cell-based, mouse. As to the method:
Protein lysates in CST buffer (20 mM Tris pH 7.5, 150 mM NaCl, 1% Triton X-100, 50 mM NaF, 1 mM EDTA, 1 mM EGTA, 2.5 mM PyroPhosphate, 2 mM beta-glycerol-phosphate, 1 mM orthovanadate, 0.01 mM Calyculan A) with protease inhibitors were equilibrated for protein levels using a BCA protein assay kit (Pierce), resolved on 8% SDS-PAGE gels, and transferred to membrane. Membranes were blocked in milk, incubated o/n at 4C in diluted primary antibody, washed with TBS-T, incubated 1 hr in secondary antibody diluted in TBS-T plus milk, washed in TBS-T, and developed using SuperSignal ECL. Secondary antibodies: anti-rabbit (Millipore AP132P) and anti-mouse (Millipore AP124P). Nuclear fractions were isolated using a NE-PER nuclear and cytoplasmic extraction kit (Thermofisher) under manufacturers conditions.
p65-expressing DNA constructs RelA-Flag (22) (Addgene 20012) and GFP-RelA (21) (Addgene 23255) were transiently transfected into KL LJE1 cells using Lipofectamine 2000 (Thermo Fisher Scientific) according to the manufacturer's protocol. Cells were treated with drug as indicated 24 hours after transfection.
In general terms: In western blotting, separated proteins are transferred to a membrane and probed.

Another assay relates to KL NSCLC GEMM. The assay is described as follows: In vivo entinostat and trametinib treatment, 42 days, tumor burden. Also on record: species or system mouse. To be noted: endpoint after 42 days; entinostat 10 mg/kg, trametinib 1 mg/kg, oral gavage. How it is done: Bioluminescent imaging was performed biweekly using an IVIS Spectrum (Caliper Life Sciences) using Living Image software (Perkin Elmer). Mice were injected intraperitoneally with 150 mg/kg D-luciferin (Caliper Life Sciences), anesthetized with isoflurane and imaged both ventrally and dorsally 10 minutes post luciferin injection. The total lung photon flux for each animal is calculated by the combination of ventral and dorsal photon flux calculated within a region of interest (ROI) encompassing the thorax.
Mice were intratracheally intubated with Lentivirus expressing Cre recombinase to initiate tumorigenesis and imaged […] starting 4 weeks post-Cre. Treatment was initiated at day 34 post-Cre (FIG. 5). In vivo treatment doses were selected based on publications (76-79). […]
Total lung tumor burden was quantitated from H&E sections using Inform v2.1 image analysis software (Cambridge Research and Instrumentation) in a non-biased manner. […] The quantitation data from this analysis was then used to calculate the percentage of tumor area as normalized to total lung area (tumor area+normal lung area).
Quantitation of each individual tumor was measured from H&E sections using morphometric analysis in Panoramic viewer software (Perkin Elmer), which calculates the size of each identified tumor by area in squared microns. […]

The next assay relates to A549 cells. Description: qRT-PCR of chemokine gene expression in A549 cells. In kind it is cell-based, human. To be noted: 2 uM entinostat 3 days, 5 uM BRD3308 4 days. How it is done: All cell lines were incubated at 37° C. and were maintained in an atmosphere containing 5% CO2. Cells were tested for Mycoplasma (Lonza) using manufacturer's conditions and were deemed negative. Cells were grown in Dulbecco's modified Eagles medium (DMEM) plus 10% fetal bovine serum (Gibco) and were continuously maintained under antibiotic selection for stable cell lines. Proliferation assays were performed by plating 2×10^3 cells per well of a 6-well plate, and cells were counted 5 days post-plating. Drug treatments were carried out using the following doses: entinostat 1 uM or 2 uM, RGFP966 10uM, TSA 0.5 uM, BRD3308 5 uM, trametinib 5 nM, 10 nM, and 25 nM, and MRTX1133 10 nM, 25 nM, and 50 nM, as indicated for the indicated treatment lengths. Media was changed and fresh drug added every 2 days.
mRNA was prepared using the Quick-RNA Miniprep kit (Zymo Research), including DNase treatment. cDNA was synthesized from 2 μg of RNA using SuperScript III (Life Technologies), and qPCR was carried out with diluted cDNA, appropriate primers, and SYBR Green PCR master mix (ThermoFisher Scientific) using a C1000 Thermal Cycler (BioRad). Relative mRNA levels were calculated using the delta Ct method, using Tbp as an internal control.

Assay [1] concerns human KRAS, LKB1 mutant lung cancer cells. Description: FGFR1 resistance mechanism in human KRAS, LKB1 mutant lung cancer cells. Particulars: 9 days of trametinib treatment, entinostat treatment days 3-9 (6 days total). Type of assay: cell-based.

In the case of `Nc1ccccc1NC(=O)c1ccc(CNC(=O)OCc2cccnc2)cc1` [entinostat], in the assay on NF-kB/p65 protein (5 hours, 1 uM entinostat or 5 uM BRD3308), the “acetylation of wildtype p65 at K310 (versus K310A mutant)” value is recorded as “induce acetylation of wildtype p65 at K310”. Also, the “K310 acetylation on transfected p65” value with NF-kB/p65 protein (Flag-p65 or GFP-p65, 6 hr, 2 uM entinostat) is recorded as “increased K310 acetylation on p65”. In addition, in the assay with NF-kB/p65 protein (Western blot, 6 hr, 2 uM entinostat, 10uM RGFP966, 0.5 uM TSA), the “quantity of p65 protein in the nuclear fraction” value was “increased the quantity of p65 protein in the nuclear fraction”. In addition, in the assay with KL NSCLC GEMM, the “tumor burden quantitated from H&E-stained sections (tumor area as percentage of total lung area)” value was “neither entinostat nor trametinib alone impacted tumor burden”. Further, the “chemokine (SASP) gene expression” value in the assay on A549 cells was “induced the expression of these genes”. In addition, the “impact of Trametinib on the FGFR1 resistance mechanism” value in assay [1] is on record as “reverses the impact of Trametinib on the FGFR1 resistance mechanism”.
